Measurements published in article PMC9841524, “Structure-Based Rational Design of Small α-Helical Peptides with Broad-Spectrum Activity against Multidrug-Resistant Pathogens” (Journal of Medicinal Chemistry, 2022).
Where no end group is shown, it is not given here.

Test system: S. aureus (ATCC 29213)
Experiment: MIC, standard microtiter dilution (CLSI)
Type: cell-based
Details: broth microdilution (CLSI), CAMHB, 10^6 CFU/mL, 37 °C, 24 h; highest MIC of three independent experiments in triplicate
Method: (§1) Description of the characteristics and growth conditions of various bacterial strains used in the study are provided in the Supporting Information (Table S3). Antibacterial susceptibility testing was carried out using a standard microtiter dilution method recommended by the clinical and laboratory standard institute (CLSI) and measured as a minimum inhibitory concentration (MIC), the lowest peptide concentration that inhibited bacterial growth. Briefly, the overnight grown cultures in the recommended broth for each bacterial strain were diluted in cation-adjusted Mueller Hinton Broth (CAMHB) to give an inoculum of 10^6 colony-forming units (CFU)/mL. A 2-fold serially diluted test peptide solution (100 μL) was added to the microtiter plates. After adding bacterial suspension (100 μL), the plates were incubated at 37 °C for 24 h, and the MICs were determined. The same protocol was used to determine the MICs in the presence of salts and serum except using the media supplemented with various cationic salts (150 mM NaCl, 4.5 mM KCl, 6 mM NH4Cl, 1 mM MgCl2, and 2 mM CaCl2) or 25% FBS. The data was acquired from three independent assays performed in triplicate.
(§2) The bacterial strains employed in this study were obtained from the American Type Culture Collection (ATCC). Each strain was propagated as recommended by the ATCC, and each strain was stored as a frozen glycerol stock at -80°C. A bacterial colony was grown on the appropriate agar as indicated in Table S1 and was used to inoculate the appropriate broth. The culture was incubated at the appropriate conditions, as mentioned in Table S1. Following the incubation, the culture was diluted to an optical density 625 nm (OD625) of 0.1 in cation adjusted Mueller Hinton Broth (CAMHB), which is equivalent to 1 × 10^8 CFU/mL. The culture was further diluted to 1 × 10^6 CFU/mL, which was used to conduct the MIC determination assay. For the S. pneumoniae strains, CAMHB + 2.5% lysed horse blood was required for the assay. The strains with their […]
(§3) Table S3. Description of the characteristics and growth conditions of various bacterial strains

Substance	MIC, S. aureus (ATCC 29213) [mg/L]
RWRRWWR-NH2 [1a]	100
RWWRAAWRR-NH2 [3d]	> 100
RWWRRAWR-NH2 [2b]	> 100
RWWRRAWRA-NH2 [3a]	> 100
RWWRRAWRAA-NH2 [4c]	> 100
WRRWARRW-NH2 [2d]	> 100

Same assay, conditions: value in parentheses (μM); broth microdilution (CLSI), CAMHB, 37 °C, 24 h

Substance	MIC, S. aureus (ATCC 29213) [µM]
RWRRWWR-NH2 [1a]	83.30
RWWRAAWRR-NH2 [3d]	> 74.48
RWWRRAWR-NH2 [2b]	> 78.65
RWWRRAWRA-NH2 [3a]	> 74.48
RWWRRAWRAA-NH2 [4c]	> 70.74
WRRWARRW-NH2 [2d]	> 78.65

Test system: E. coli (ATCC 25922)
Experiment: not given
Details: broth microdilution (CLSI), CAMHB, 10^6 CFU/mL, 37 °C, 24 h; highest MIC of three independent experiments in triplicate
Method: as §1, §2, §3

Substance	MIC, E. coli (ATCC 25922) [mg/L]
RWRRWWR-NH2 [1a]	> 100
RWWRAAWRR-NH2 [3d]	> 100
RWWRRAWR-NH2 [2b]	> 100
RWWRRAWRA-NH2 [3a]	> 100
RWWRRAWRAA-NH2 [4c]	> 100
WRRWARRW-NH2 [2d]	> 100

Same assay, conditions: value in parentheses (μM); broth microdilution (CLSI), CAMHB, 37 °C, 24 h

Substance	MIC, E. coli (ATCC 25922) [µM]
RWRRWWR-NH2 [1a]	> 83.30
RWWRAAWRR-NH2 [3d]	> 74.48
RWWRRAWR-NH2 [2b]	> 78.65
RWWRRAWRA-NH2 [3a]	> 74.48
RWWRRAWRAA-NH2 [4c]	> 70.74
WRRWARRW-NH2 [2d]	> 78.65

Test system: MRSA (ATCC BAA-1556)
Experiment: not given
Details: broth microdilution (CLSI), CAMHB, 10^6 CFU/mL, 37 °C, 24 h; highest MIC of three independent experiments in triplicate
Method: as §1, §2, §3

Substance	MIC, MRSA (ATCC BAA-1556) [mg/L]
RWRRWWR-NH2 [1a]	100
RWWRAAWRR-NH2 [3d]	> 100
RWWRRAWR-NH2 [2b]	> 100
RWWRRAWRA-NH2 [3a]	> 100
RWWRRAWRAA-NH2 [4c]	> 100
WRRWARRW-NH2 [2d]	> 100

Same assay, conditions: value in parentheses (μM); broth microdilution (CLSI), CAMHB, 37 °C, 24 h

Substance	MIC, MRSA (ATCC BAA-1556) [µM]
RWRRWWR-NH2 [1a]	83.30
RWWRAAWRR-NH2 [3d]	> 74.48
RWWRRAWR-NH2 [2b]	> 78.65
RWWRRAWRA-NH2 [3a]	> 74.48
RWWRRAWRAA-NH2 [4c]	> 70.74
WRRWARRW-NH2 [2d]	> 78.65

Test system: P. aeruginosa (ATCC 27883)
Experiment: MIC, standard microtiter dilution (CLSI)
Type: cell-based, Pseudomonas aeruginosa
Details: broth microdilution (CLSI), CAMHB, 10^6 CFU/mL, 37 °C, 24 h; highest MIC of three independent experiments in triplicate
Method: as §1, §2, §3

Substance	MIC, P. aeruginosa (ATCC 27883) [mg/L]
RWRRWWR-NH2 [1a]	> 100
RWWRAAWRR-NH2 [3d]	> 100
RWWRRAWR-NH2 [2b]	> 100
RWWRRAWRA-NH2 [3a]	> 100
RWWRRAWRAA-NH2 [4c]	> 100
WRRWARRW-NH2 [2d]	> 100

Same assay, conditions: value in parentheses (μM); broth microdilution (CLSI), CAMHB, 37 °C, 24 h

Substance	MIC, P. aeruginosa (ATCC 27883) [µM]
RWRRWWR-NH2 [1a]	> 83.30
RWWRAAWRR-NH2 [3d]	> 74.48
RWWRRAWR-NH2 [2b]	> 78.65
RWWRRAWRA-NH2 [3a]	> 74.48
RWWRRAWRAA-NH2 [4c]	> 70.74
WRRWARRW-NH2 [2d]	> 78.65

Test system: K. pneumoniae (ATCCBAA-1705)
Experiment: MIC, standard microtiter dilution (CLSI)
Type: cell-based, Klebsiella pneumoniae
Details: broth microdilution (CLSI), CAMHB, 10^6 CFU/mL, 37 °C, 24 h; highest MIC of three independent experiments in triplicate
Method: as §1, §2, §3

Substance	MIC, K. pneumoniae (ATCCBAA-1705) [mg/L]
RWRRWWR-NH2 [1a]	> 100
RWWRAAWRR-NH2 [3d]	> 100
RWWRRAWR-NH2 [2b]	> 100
RWWRRAWRA-NH2 [3a]	> 100
RWWRRAWRAA-NH2 [4c]	> 100
WRRWARRW-NH2 [2d]	> 100

Same assay, conditions: value in parentheses (μM); broth microdilution (CLSI), CAMHB, 37 °C, 24 h

Substance	MIC, K. pneumoniae (ATCCBAA-1705) [µM]
RWRRWWR-NH2 [1a]	> 83.30
RWWRAAWRR-NH2 [3d]	> 74.48
RWWRRAWR-NH2 [2b]	> 78.65
RWWRRAWRA-NH2 [3a]	> 74.48
RWWRRAWRAA-NH2 [4c]	> 70.74
WRRWARRW-NH2 [2d]	> 78.65

Test system: human red blood cells (hRBCs)
Experiment: Hemolytic assay
Type: cell-based
Details: hRBC suspension 4% in PBS, 2 h, 37 °C, hemoglobin release at 567 nm; 1% Triton X-100 = 100%
Method: The hemolytic activity of all peptides (1a–8d) was determined using hRBC. The assay was conducted by adding 75 μL of 2-fold serially diluted peptides to 75 μL of hRBC suspension (4% in PBS). The plates were incubated for 2 h at 37 °C without agitation. In order to determine the hemolysis at each tested concentration of peptides, the plate was centrifuged, and 100 μL of the supernatant was transferred to another 96-well plate to determine hemoglobin release spectrophotometrically at 567 nm. Percent hemolysis was calculated by the following formula [drawing 1] where A represents the absorbance of the peptide sample at 567 nm and A0 and At represent zero percent and 100% hemolysis determined in phosphate buffer saline and 1% Triton X-100, respectively.

Substance	HC50 (concentration at which 50% hemolysis was observed) [µg/mL]
RWRRWWR-NH2 [1a]	> 500
RWWRAAWRR-NH2 [3d]	> 500
RWWRRAWR-NH2 [2b]	> 500
RWWRRAWRA-NH2 [3a]	> 500
RWWRRAWRAA-NH2 [4c]	> 500
WRRWARRW-NH2 [2d]	> 500

Same assay, conditions: value in parentheses (μM); hRBC 4% in PBS, 2 h, 37 °C, 567 nm

Substance	HC50 (concentration at which 50% hemolysis was observed) [µM]
RWRRWWR-NH2 [1a]	> 416.52
RWWRAAWRR-NH2 [3d]	> 372.42
RWWRRAWR-NH2 [2b]	> 393.23
RWWRRAWRA-NH2 [3a]	> 372.42
RWWRRAWRAA-NH2 [4c]	> 353.69
WRRWARRW-NH2 [2d]	> 393.23
